# According to patent US20240226034A1, “Use of Terpenoids and Salicylates as Anesthetics and Analgesics” (THE REGENTS OF THE UNIVERSITY OF CALIFORNIA, priority 2021, published 2024):
# Tests used:
# [1] = tested on: Sprague Dawley rats; test: Continuous IV infusion anesthesia; format: in vivo, rat; conditions: for time after start of injection to loss-of-righting and absent tail clamp response: continuous 0.2 mL/min IV infusion of 10% emulsion
# Experimental: Lateral tail veins were catheterized in eight, 70-day-old, male, Sprague Dawley rats weighing 309±6 g. A 10% solution of L-carvone or methyl salicylate in 20% […]® was each administered IV to 8 rats (4 animals per drug treatment) by using a syringe pump at a rate of 12 mL/h. When rats lost their righting reflex and were unresponsive to a tail clamp, a midline laparotomy was performed, the abdominal aorta catheterized, and the rat exsanguinated. Blood was collected in a heparin tube and centrifuged; plasma was separated and stored in cryogenic tubes at −80° C. until analysis.
# [2] = tested on: Sprague Dawley rats; test: Another experiment: IV doses of 10% (v/v) solutions in […]; format: in vivo, rat
# Text: In another experiment, a 10% (v/v) solution of methyl salicylate in […]®, and a 10% (v/v) solution of L-carvone in […]® were each tested in Sprague Dawley rats that each weighed approximately 300 g.
# [3] = target: T1, Nav1.2 channels (human SCN2A) (Homo sapiens, UniProt Q99250); test: Two-electrode voltage clamp of Nav1.2 channels expressed in Xenopus oocytes; format: cell-based; conditions: for inhibition of Nav1.2 channels: at the mean plasma concentration during IV infusion anesthesia in rats; for Hill coefficient, Nav1.2 channel inhibition: dose-response model; for effect on Nav1.2 channel currents: dose-response, oocytes
# T1 construct: expressed in transfected cells; host or cells: Xenopus laevis oocytes (RNA injection)
# T1 sequence (Q99250 whole entry, the tested form may be a part): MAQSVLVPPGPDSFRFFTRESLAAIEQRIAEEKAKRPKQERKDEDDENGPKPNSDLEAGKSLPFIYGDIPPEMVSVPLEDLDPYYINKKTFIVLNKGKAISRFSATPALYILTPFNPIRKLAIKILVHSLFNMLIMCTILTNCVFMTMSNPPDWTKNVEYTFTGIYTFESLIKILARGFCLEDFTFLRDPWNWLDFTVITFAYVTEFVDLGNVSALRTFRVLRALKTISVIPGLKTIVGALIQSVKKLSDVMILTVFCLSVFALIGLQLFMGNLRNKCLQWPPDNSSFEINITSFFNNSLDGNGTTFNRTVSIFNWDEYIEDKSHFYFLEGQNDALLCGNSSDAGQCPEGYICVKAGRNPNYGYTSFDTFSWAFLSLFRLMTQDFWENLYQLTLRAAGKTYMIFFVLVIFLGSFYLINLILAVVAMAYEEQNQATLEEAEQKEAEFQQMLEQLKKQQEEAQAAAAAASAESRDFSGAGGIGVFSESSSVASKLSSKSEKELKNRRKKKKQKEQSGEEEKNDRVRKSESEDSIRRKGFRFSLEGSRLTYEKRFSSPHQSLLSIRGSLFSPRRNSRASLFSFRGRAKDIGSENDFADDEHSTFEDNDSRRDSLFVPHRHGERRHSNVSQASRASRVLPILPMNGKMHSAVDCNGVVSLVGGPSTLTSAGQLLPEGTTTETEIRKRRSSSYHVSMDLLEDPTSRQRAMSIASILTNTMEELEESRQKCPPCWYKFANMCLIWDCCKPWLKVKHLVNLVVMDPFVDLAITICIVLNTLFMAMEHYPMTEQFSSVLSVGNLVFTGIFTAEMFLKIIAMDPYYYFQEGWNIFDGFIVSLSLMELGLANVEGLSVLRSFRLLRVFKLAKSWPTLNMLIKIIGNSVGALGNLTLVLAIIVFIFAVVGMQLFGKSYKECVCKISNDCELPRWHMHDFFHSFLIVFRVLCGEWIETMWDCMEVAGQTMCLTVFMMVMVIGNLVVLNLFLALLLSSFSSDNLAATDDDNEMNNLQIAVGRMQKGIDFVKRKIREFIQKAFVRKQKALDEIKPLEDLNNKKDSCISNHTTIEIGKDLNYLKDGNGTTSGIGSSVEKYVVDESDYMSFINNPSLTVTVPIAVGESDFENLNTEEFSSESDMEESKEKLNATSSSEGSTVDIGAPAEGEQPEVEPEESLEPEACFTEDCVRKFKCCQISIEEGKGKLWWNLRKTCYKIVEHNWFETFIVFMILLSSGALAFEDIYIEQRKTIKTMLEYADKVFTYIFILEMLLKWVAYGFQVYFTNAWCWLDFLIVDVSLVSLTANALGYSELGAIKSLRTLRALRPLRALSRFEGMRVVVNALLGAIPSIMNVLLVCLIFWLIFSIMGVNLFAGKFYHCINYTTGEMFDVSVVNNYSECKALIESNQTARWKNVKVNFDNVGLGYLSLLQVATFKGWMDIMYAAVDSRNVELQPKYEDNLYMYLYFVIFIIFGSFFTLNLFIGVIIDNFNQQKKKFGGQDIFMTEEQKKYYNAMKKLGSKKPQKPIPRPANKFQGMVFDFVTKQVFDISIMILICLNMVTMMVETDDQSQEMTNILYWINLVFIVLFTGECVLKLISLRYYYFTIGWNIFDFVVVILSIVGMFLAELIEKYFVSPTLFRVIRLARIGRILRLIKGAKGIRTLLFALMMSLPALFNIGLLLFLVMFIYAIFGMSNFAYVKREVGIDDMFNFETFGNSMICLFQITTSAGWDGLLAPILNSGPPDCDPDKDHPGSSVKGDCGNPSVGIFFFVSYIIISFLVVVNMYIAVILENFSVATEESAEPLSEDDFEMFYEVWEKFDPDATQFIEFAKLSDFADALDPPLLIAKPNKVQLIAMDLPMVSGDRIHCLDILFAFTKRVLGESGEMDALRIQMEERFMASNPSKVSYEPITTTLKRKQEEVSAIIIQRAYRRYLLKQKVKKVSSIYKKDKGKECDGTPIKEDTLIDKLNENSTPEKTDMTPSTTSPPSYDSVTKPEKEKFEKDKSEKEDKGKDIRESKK
# Text: (§1) Ovaries removed from sexually mature Xenopus laevis frogs were bluntly dissected to remove surrounding connective tissue and then digested with 0.2% type I collagenase in an oocyte Ringer's solution. Once free from thecal cells and connective tissue, individual oocytes were rinsed, sorted, and stored in a modified Barth's solution (R. Brosnan et al., Anesth. Analg. 103, (2006): 86; L. Yang, P. S. Milutinovic, R. J. Brosnan, E. I. Eger 2nd, & J. M. Sonner, Anesth. Analg. 105, (2007): 393; R. J. Brosnan, F. B. Fukushima, & T. L. Pham, Anaesth. Analg. 44, (2017): 577; A. Cenani, R. J. Brosnan, & H. K. Knych, Pharmacology 103, (2019): 10).
# (§2) Heteromeric GABAA receptors were expressed in oocytes by blind intranuclear injection of 1 ng DNA encoding the human al (GABRA1) and rat B2 (GABRB2) subunits in a 1:1 ratio. NMDA receptors were expressed by intracytoplasmic injection of 5 ng RNA encoding rat NR1 (GRIN1) and rat NR2a (GRIN2A) subunits in a 1:1 ratio. Nax 1.2 channels were expressed by injection of 5 ng RNA encoding the human SCN2A gene.
# Studies of the Nav1.2 channels were carried out Using the same equipment as above, oocytes were perfused with FR and clamped at −80 mV transmembrane potential. Every 2 min, a 6-s step potential to 0 mV was applied to open the channel; this was repeated until baseline responses stabilized. Next, FR containing the test drug was perfused for 2 min followed by another 6-s step voltage change to 0 mV. Finally, FR was perfused for 5 min to wash out the drug, and another 6-s step clamp to 0 mV was applied to confirm that post-drug currents had returned to within 10% of pre-drug values.
# (§3) The change in whole cell peak current before and during agonist exposure (for GABAA and NMDA receptors) or before and during the voltage step clamp (for Nav1.2 channels) was measured in the tracings immediately before and during drug exposure. Percent change in current was calculated as follows:
# (§4) [formula] • where IB is the baseline pre-drug current peak and ID is the drug current peak. For each drug and ion channel, data were fit to a Hill equation using nonlinear regression with sequential quadratic programming and bootstrap estimates of parameter standard errors (SPSS, v. 27; IBM, Armonk, NY, USA). In the model, maximum drug inhibition (Imax) was constrained to not be less than −100%. Initial parameter estimates were seeded with values based on visual inspection of respective dose-response curves in order to facilitate model convergence.
# [4] = cited from earlier work
# [5] = target: T2, NMDA receptors (rat NR1 GRIN1 and rat NR2a GRIN2A subunits) (Rattus norvegicus, UniProt P35439+Q00959); test: Two-electrode voltage clamp of NMDA receptors expressed in Xenopus oocytes; format: cell-based; conditions: for inhibition of NMDA receptors: at the mean plasma concentration during IV infusion anesthesia in rats; for Hill coefficient, NMDA receptor inhibition: dose-response model; for effect on NMDA receptor currents: dose-response, oocytes
# T2 construct: expressed in transfected cells; host or cells: Xenopus laevis oocytes (intracytoplasmic RNA injection)
# T2 sequence (Q00959 20-1464 limits assumed, other chains not shown): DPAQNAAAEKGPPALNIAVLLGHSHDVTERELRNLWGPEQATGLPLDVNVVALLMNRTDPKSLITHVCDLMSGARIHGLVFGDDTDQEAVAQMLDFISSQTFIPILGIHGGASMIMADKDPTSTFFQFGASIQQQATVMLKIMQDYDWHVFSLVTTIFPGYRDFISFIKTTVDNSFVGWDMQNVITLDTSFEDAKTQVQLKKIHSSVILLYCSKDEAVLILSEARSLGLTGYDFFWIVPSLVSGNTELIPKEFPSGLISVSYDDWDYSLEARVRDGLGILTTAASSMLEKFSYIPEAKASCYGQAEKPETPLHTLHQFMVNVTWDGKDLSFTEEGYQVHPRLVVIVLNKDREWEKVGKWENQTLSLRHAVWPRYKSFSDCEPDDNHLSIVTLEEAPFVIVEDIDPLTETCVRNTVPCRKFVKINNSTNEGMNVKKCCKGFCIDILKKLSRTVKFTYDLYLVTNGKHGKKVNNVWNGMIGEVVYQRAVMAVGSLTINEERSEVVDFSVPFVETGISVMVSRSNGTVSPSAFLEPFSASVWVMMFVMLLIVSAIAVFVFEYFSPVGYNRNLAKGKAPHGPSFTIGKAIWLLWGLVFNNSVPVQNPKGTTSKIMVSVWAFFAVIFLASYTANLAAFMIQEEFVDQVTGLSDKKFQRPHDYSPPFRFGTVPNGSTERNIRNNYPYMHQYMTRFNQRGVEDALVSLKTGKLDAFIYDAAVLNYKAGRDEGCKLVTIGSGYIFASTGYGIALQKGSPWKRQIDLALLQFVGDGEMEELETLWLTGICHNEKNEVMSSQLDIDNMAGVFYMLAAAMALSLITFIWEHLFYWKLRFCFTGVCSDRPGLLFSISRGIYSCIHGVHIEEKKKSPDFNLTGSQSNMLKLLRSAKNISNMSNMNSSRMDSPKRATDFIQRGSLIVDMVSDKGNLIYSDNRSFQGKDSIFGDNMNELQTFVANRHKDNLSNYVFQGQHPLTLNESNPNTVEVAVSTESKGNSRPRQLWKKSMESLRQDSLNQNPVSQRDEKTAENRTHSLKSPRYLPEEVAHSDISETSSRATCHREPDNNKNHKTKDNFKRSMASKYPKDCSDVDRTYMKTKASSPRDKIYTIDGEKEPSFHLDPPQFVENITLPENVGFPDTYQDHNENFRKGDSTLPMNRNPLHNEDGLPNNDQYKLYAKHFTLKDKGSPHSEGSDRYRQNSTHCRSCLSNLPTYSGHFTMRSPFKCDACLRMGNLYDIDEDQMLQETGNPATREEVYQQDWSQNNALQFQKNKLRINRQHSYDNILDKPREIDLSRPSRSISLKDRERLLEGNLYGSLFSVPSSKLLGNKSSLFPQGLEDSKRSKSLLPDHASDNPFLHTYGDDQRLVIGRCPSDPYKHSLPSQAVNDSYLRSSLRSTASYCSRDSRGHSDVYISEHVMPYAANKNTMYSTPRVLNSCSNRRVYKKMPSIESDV
# Text: as §1, §2
# Studies of NMDA receptors were carried out using equipment identical to that described for GABAA receptors. Transmembrane potential was clamped at −80 mV, and oocytes were perfused with a barium-containing FR solution (Ba-FR) which substituted equimolar BaCl2 for calcium salts and contained 0.1 mM EGTA as a calcium chelator. After 5 min, the perfusate was changed for 30 s to barium FR containing 0.1 mM glutamate plus 0.01 mM glycine (Ba-FREG) as receptor agonists which produce an NMDA receptor current greater than 99% of the maximal response. Next, Ba-FR containing the study drug was perfused for 5 min and then switched to Ba-FREG containing the same test article for 30 s. The drug was then washed out with a 5-min perfusion of Ba-FR followed by a 30-s exposure to Ba-FREG to confirm post-drug currents had returned to within 10% of pre-drug values.
# as §3, §4
# [6] = tested on: Sprague Dawley rats; test: Pilot study, single IV bolus injection, righting reflex and tail clamp response; conditions: for time to return of righting reflex: methyl salicylate: the 2 surviving rats
# Experimental: Solutions of 10% (v/v) L-carvone or methyl salicylate were prepared sterilely in 20% […]® (Fresenius Kabi, Lake Zurich, IL, USA). Lateral tail vein catheters were placed in twenty-one 69-day-old, male, Sprague Dawley rats weighing 291±17 (mean±SD) grams. Each rat received a single intravenous bolus injection of L-carvone solution (0.2 or 0.4 mL), methyl salicylate solution (0.1, 0.15, 0.2, or 0.4 mL), or a 1:1 mixture of the L-carvone and methyl salicylate solutions over 15 s. Because L-carvone density is 0.9673 g/cm^3 at 25° C., 0.2 mL and 0.4 mL of solution contained 19 mg and 39 mg of L-carvone, respectively (E. E. Royals & S. E. Horne, J. Am. Chem. Soc. 73, (1951): 5850).
# Spontaneous motor activity and loss-of-righting reflex was assessed at 5- to 10-s intervals, and nociception response to an alligator clamp applied to the tail was tested if the righting reflex was absent. […] Animals were weighed 24 and 48 h after the study and then euthanized for gross pathology examination.
# [7] = tested on: carp; conditions: immersion; cited from earlier work
# [8] = Sprague Dawley, rat, in vivo, iv
# [9] = 0.2 mL IV bolus of 10% emulsion
molecule,measurement,setting,value
COC(=O)c1ccccc1O [methyl salicylate],time after start of injection to loss-of-righting and absent tail clamp response,[1],3 to 4 min
same,excitement after injection,"[1]; rat, in vivo, iv",transient excitement in half of the animals
same,tonic or clonic muscle activity,"[1]; rat, in vivo, iv",No tonic or clonic muscle activity
same,duration of loss of righting reflex,[2]; 0.2 mL IV,30 s
same,time to ambulatory after return of righting,[2]; 0.2 mL IV,40 s
same,time to loss of righting reflex,[2]; 0.2 mL IV,≤ 25 s
same,time to loss of righting,[2]; 0.4 mL IV,15 s
same,time from apnea to confirmed cardiac arrest,[2]; [8],less than 1 minutes
same,time from loss of righting to apnea,[2]; [8],5 s
same,gross necropsy performed 2 days later,"[2]; rat, in vivo, iv","No evidence of hepatic, renal, cardiac, or pulmonary injury"
same,inhibition of Nav1.2 channels,[3],78%
same,greater potency for Nav1.2 channels than for NMDA receptors,"[3]; comparison of IC50, FIG. 4",50%
same,"Hill coefficient, Nav1.2 channel inhibition",[3],greater than 1
same,effect on Nav1.2 channel currents,[3],dose-dependently inhibited
same,solubility in water relative to cutoff values for modulation of the 3 ion channels,[4],more soluble in water than the cutoff values
same,inhibition of NMDA receptors,[5],53%
same,"Hill coefficient, NMDA receptor inhibition",[5],~1
same,effect on NMDA receptor currents,[5],dose-dependently inhibited
same,time to loss-of-righting reflex,"[6]; 0.1 mL IV bolus of 10% emulsion in 20% INTRALIPID, single rat",33 s
same,general anesthesia (immobility in response to a tail clamp),"[6]; 0.1 mL IV bolus, single rat",never resulted in general anesthesia
same,time to return-of-righting reflex,"[6]; 0.1 mL IV bolus, single rat",60 s
same,time to anesthesia,"[6]; 0.15 mL IV bolus, N=4 rats",39 ± 2 s
same,time to loss-of-righting,"[6]; 0.15 mL IV bolus, N=4 rats",35 ± 5 s
same,time to normal ambulation without ataxia,"[6]; 0.15 mL IV bolus, N=4 rats",76 ± 10 s
same,time to return from anesthesia (tail clamp response) after drug injection,"[6]; 0.15 mL IV bolus, N=4 rats",64 ± 8 s
same,time to return of righting after drug injection,"[6]; 0.15 mL IV bolus, N=4 rats",53 ± 3 s
same,time to walking and active / ambulating normally,[6]; 0.2 mL IV bolus,110 s
same,time to loss of tail clamp response (general anesthesia),[6]; [9],37 ± 13 s
same,time to loss-of-righting reflex,[6]; [9],35 ± 10 s
same,time to return of righting reflex,[6]; 0.2 mL IV bolus,58 s
same,time to regain tail clamp response,"[6]; 0.2 mL IV bolus, the 2 surviving rats",48 s
same,time to unconsciousness,[6]; 0.4 mL IV bolus,20 ± 5 s
same,"body weight for the next two days, relative to baseline values","[6]; rat, in vivo",97-98%
same,gross pathology / necropsy findings,"[6]; rat, in vivo",no gross abnormalities
same,bath concentration causing anesthesia,[7],0.8 to 2.3 mM
L-carvone,tonic or clonic muscle activity,[1]; continuous 0.2 mL/min IV infusion,tonic muscle contractions suggestive of seizure
same,time after start of injection to loss-of-righting and absent tail clamp response,[1],2 to 4 min
same,duration of general anesthesia effects,[2]; 0.2 mL IV,1 min
same,gross necropsy performed 2 days later,[2]; 0.2 mL IV,"No evidence of hepatic, renal, cardiac, or pulmonary injury"
same,time after administration to awake and ambulatory,[2]; 0.2 mL IV,≤ 3 min
same,time to general anesthesia (loss of righting reflex and tail clamp response),"[2]; 0.2 mL IV, approx. 300 g rats",≤ 30 s
same,apnea after onset of anesthesia,[2]; 0.4 mL IV,almost immediately
same,time from apnea to confirmed cardiac arrest,[2]; 0.4 mL IV,2 min
same,time to anesthesia,[2]; 0.4 mL IV,≤ 45 s
same,Nav1.2 channel current at highest concentration,[3]; 10 mM drug,near or complete loss of channel currents
same,inhibition of Nav1.2 channels,[3],90%
same,"Hill coefficient, Nav1.2 channel inhibition",[3],~1
same,effect on Nav1.2 channel currents,[3],dose-dependent inhibition
same,NMDA receptor current at highest concentration,[5]; 10 mM drug,near or complete loss of channel currents
same,greater inhibition of NMDA receptors and Nav1.2 channels than at the methyl salicylate plasma concentrations,"[5]; at L-carvone plasma concentrations during anesthesia, NMDA and Nav1.2",15-30%
same,inhibition of NMDA receptors,[5],71%
same,"Hill coefficient, NMDA receptor inhibition",[5],~1
same,effect on NMDA receptor currents,[5],dose-dependent inhibition
same,"body weight over the next 2 days, deviation from baseline",[6]; 0.2 mL IV bolus,1.9±1.4%
same,time to walking and active / ambulating normally,[6]; 0.2 mL IV bolus,60 ± 13 s
same,time to loss of tail clamp response (general anesthesia),[6]; [9],54 ± 11 s
same,time to loss-of-righting reflex,[6]; [9],40 ± 6 s
same,behavioural sign before loss-of-righting reflex,"[6]; 0.2 mL IV bolus, N=4 rats",transient excitement
same,duration of transiently decreased respiratory rate,"[6]; 0.2 mL IV bolus, N=4 rats",approximately 10 s
same,duration of whole-body muscle hypertonia,"[6]; 0.2 mL IV bolus, half of the rats",15 s
same,time to return of righting reflex,[6]; 0.2 mL IV bolus,58 ± 14 s
same,time to cardiopulmonary arrest,[6]; 0.4 mL IV bolus,35 ± 18 s
same,time to unconsciousness,[6]; 0.4 mL IV bolus,20 ± 4 s
same,gross pathology / necropsy findings,"[6]; recovered animals (sublethal doses), 48 h after drug administration",no gross pathology findings
same,bath concentration causing anesthesia,[7],1.9 to 4.5 mM
